From PMC4780864, “Family-wide Structural Analysis of Human Numb-Associated Protein Kinases” (Structure(London, England:1993), 2016)

Assays:
AAK1 [1] = molecular target: T1, AAK1 (Homo sapiens, UniProt Q2M2I8); test: biochemical; parameters: kinase domain; Thermal shift assay (DSF, SYPRO Orange), 2 uM kinase domain, mean delta Tm of triplicates versus DMSO; details: for ΔTm at 12.5 µM: read-out: AAK1; for AAK1: 12.5 µM
Method: (§1) All measurements were performed in triplicate and mean values were reported for all compounds (Table S1). […] However, NAKs are often omitted from selectivity panels, including commercial screens.

BIKE [2] = molecular target: T2, BIKE (Homo sapiens, UniProt Q9NSY1); test: biochemical; parameters: Thermal shift assay (DSF, SYPRO Orange), 2 uM kinase domain, mean delta Tm of triplicates versus DMSO; details: read-out: BIKE
T2 construct: gene BMP2K; catalytic domain-containing construct
Method: as §1

GAK = molecular target: T3, GAK (Homo sapiens, UniProt O14976); test: biochemical; parameters: Thermal shift assay (DSF, SYPRO Orange), 2 uM kinase domain, mean delta Tm of triplicates versus DMSO; details: for ΔTm at 12.5 µM: read-out: GAK
T3 construct: catalytic domain-containing construct
T3 sequence (O14976 1-1311): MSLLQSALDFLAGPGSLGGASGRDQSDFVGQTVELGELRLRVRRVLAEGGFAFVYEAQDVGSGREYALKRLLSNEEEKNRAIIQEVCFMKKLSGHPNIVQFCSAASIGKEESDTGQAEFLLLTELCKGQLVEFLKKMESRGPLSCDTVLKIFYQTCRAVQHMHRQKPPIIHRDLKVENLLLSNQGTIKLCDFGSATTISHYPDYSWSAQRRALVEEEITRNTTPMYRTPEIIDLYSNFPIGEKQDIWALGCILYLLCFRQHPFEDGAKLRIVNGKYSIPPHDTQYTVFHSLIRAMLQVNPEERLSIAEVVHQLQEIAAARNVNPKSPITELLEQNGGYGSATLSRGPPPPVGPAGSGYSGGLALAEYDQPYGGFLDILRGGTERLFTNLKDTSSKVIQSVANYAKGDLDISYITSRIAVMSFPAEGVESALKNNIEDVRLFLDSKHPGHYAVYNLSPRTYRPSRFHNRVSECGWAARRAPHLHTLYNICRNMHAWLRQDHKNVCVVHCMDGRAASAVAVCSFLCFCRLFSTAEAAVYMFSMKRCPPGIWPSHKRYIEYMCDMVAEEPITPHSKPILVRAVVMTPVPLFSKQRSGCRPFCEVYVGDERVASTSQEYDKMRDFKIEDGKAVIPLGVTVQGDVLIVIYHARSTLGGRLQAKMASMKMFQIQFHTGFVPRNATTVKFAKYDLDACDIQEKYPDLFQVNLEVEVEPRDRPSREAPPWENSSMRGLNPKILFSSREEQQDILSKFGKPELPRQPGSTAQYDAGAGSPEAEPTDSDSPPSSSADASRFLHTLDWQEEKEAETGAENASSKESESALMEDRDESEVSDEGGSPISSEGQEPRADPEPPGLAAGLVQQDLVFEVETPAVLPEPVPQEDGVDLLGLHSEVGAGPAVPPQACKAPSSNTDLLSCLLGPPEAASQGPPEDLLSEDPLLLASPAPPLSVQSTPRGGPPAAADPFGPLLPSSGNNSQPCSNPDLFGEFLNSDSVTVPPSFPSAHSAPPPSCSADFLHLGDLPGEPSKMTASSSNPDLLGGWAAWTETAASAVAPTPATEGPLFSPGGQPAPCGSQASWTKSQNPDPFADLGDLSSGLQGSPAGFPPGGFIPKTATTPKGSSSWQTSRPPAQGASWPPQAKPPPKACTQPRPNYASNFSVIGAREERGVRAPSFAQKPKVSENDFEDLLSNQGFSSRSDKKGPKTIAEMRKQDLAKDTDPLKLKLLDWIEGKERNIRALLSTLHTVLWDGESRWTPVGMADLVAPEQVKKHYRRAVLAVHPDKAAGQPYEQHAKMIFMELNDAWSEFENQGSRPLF
Method: as §1

MPSK1 = molecular target: T4, MPSK1 (Homo sapiens, UniProt O75716); test: biochemical; parameters: Thermal shift assay (DSF, SYPRO Orange), 2 uM kinase domain, mean delta Tm of triplicates versus DMSO; details: for ΔTm at 12.5 µM: read-out: MPSK1
T4 construct: gene STK16; catalytic domain-containing construct
Method: as §1

AAK1 [3] = molecular target: T1, AAK1; test: ITC; thermal shift
BIKE [4] = molecular target: T5, BIKE (Homo sapiens, UniProt Q9NSY1, K320A/K321A); test: co-crystal structure ([…] Å); ITC; thermal shift; assay type: binding
T5 construct: gene BMP2K; BIKE38–345 (kinase domain)
T5 sequence (Q9NSY1 38-345 K320A/K321A): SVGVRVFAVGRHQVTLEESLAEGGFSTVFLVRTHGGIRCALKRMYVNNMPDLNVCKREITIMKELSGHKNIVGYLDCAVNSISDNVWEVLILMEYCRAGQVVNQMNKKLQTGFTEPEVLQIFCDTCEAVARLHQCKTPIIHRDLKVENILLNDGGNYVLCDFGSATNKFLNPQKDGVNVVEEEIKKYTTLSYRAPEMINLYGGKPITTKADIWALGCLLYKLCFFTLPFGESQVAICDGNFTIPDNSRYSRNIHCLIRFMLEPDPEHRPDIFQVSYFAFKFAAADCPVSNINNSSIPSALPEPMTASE

T2 sequence (Q9NSY1 whole entry, the tested form may be a part): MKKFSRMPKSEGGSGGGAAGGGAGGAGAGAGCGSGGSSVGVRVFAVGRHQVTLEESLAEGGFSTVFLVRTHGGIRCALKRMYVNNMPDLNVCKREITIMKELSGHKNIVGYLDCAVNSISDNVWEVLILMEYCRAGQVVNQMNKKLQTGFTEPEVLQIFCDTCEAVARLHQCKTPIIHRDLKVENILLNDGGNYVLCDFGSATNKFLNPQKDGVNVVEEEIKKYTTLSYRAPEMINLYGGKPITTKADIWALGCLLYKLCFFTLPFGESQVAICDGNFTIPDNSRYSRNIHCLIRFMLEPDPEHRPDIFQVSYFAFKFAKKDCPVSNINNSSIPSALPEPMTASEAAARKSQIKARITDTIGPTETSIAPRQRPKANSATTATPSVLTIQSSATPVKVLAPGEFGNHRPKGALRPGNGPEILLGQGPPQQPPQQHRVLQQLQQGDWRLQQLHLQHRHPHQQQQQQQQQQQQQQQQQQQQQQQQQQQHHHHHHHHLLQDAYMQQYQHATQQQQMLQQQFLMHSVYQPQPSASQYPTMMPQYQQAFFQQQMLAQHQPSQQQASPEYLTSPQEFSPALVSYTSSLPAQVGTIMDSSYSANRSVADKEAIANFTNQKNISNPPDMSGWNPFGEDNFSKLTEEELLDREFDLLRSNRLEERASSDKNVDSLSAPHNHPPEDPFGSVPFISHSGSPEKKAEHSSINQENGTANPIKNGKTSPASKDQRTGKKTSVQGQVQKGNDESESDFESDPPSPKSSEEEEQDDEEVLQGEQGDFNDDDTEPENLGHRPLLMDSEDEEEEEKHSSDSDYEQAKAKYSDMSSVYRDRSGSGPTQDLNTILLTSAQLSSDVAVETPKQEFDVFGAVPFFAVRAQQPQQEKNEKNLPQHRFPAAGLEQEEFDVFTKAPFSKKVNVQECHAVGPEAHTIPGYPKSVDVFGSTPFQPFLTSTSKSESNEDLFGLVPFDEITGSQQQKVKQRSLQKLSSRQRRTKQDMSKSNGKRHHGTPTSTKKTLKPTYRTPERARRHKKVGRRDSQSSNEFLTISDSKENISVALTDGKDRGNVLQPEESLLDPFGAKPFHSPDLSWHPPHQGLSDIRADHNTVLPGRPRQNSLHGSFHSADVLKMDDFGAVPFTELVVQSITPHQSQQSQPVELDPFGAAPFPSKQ
T4 sequence (O75716 whole entry, the tested form may be a part): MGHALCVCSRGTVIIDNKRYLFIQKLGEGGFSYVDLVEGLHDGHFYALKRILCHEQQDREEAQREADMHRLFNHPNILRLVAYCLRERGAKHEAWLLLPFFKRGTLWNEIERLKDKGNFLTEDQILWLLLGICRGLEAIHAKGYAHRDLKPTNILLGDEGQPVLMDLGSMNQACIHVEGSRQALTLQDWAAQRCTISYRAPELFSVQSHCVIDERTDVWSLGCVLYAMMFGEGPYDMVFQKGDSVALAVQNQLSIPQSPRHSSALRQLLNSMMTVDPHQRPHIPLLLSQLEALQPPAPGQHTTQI
T1 sequence (Q2M2I8 27-365 limits assumed): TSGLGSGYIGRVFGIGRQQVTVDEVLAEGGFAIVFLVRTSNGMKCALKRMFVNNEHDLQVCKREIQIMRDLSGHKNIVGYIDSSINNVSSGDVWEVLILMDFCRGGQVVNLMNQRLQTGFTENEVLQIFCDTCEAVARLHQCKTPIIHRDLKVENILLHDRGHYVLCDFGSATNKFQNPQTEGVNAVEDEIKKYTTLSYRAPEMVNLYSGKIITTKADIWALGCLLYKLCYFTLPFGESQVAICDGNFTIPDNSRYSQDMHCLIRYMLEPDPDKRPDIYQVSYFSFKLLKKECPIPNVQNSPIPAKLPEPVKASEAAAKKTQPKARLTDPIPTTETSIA

ΔTm at 12.5 µM (AAK1 [1]) [°C]	ΔTm at 12.5 µM (BIKE [2]) [°C]	ΔTm at 12.5 µM (GAK) [°C]	ΔTm at 12.5 µM (MPSK1) [°C]	AAK1 (AAK1 [1]) [°C]	GAK (GAK; 12.5 µM) [°C]	MPSK1 (MPSK1; 12.5 µM) [°C]	Structure (SMILES)	Kd (AAK1 [3]) [nM]	Kd (BIKE [4]) [nM]
1.63	3.16	0.62	1.8				CN1CCN(c2nc(C3=C(c4c[nH]c5ccccc45)C(=O)NC3=O)c3ccccc3n2)CC1 [Sotrastaurin]		
	13.9		6.79	8.67	4.647		CCN(CC)CCNC(=O)c1c(C)[nH]c(/C=C2\C(=O)Nc3ccc(F)cc32)c1C [Sunitinib]		
0.0367	0.177	-0.183	0.277				Cn1c(=O)c(F)c(Nc2ccc(I)cc2F)c2c(=O)n(C[C@@H](O)CO)cnc21 [TAK-733]		
5.22	12	3.35	10.7				CCS(=O)(=O)c1cccc(-c2cc(C(=O)NC3CCN(C)CC3)c(C)c3[nH]c4ncc(C)cc4c23)c1 [TAK-901]		
0.26	0.5	-0.347	1.43				Cc1cc(C(C)Nc2ccccc2)c2nc(N3CCOCC3)cc(=O)n2c1 (stereo not shown) [TGX-221]		
7	6.55	3.48	14.1				COc1cc(Nc2ncc(F)c(Nc3ccc4c(n3)NC(=O)C(C)(C)O4)n2)cc(OC)c1OC [Tamatinib]		
0.57	1.76	0.06	1.21				COc1cc2c(N3CCN(C(=O)Nc4ccc(OC(C)C)cc4)CC3)ncnc2cc1OCCCN1CCCCC1 [Tandutinib]		
0.24	0.245	-0.487	0.443				O=c1sn(-c2cccc3ccccc23)c(=O)n1Cc1ccccc1 [Tideglusib]		
0.46	0.697	-0.823	0.87				O=C1NC(=O)[C@@H](c2cn3c4c(cccc24)CCC3)[C@@H]1c1c[nH]c2ccccc12 [Tivantinib]		
3.15	3.87	6.98	1.4				COc1cc2nccc(Oc3ccc(NC(=O)Nc4cc(C)on4)c(Cl)c3)c2cc1OC [Tivozanib]		
0.68	2.18	-0.58	1.35				C[C@@H]1CCN(C(=O)CC#N)C[C@@H]1N(C)c1ncnc2[nH]ccc12 [Tofacitinib]		
0.367	0.423	-0.66	0.827				CC(=O)Nc1cccc(-n2c(=O)n(C3CC3)c(=O)c3c(Nc4ccc(I)cc4F)n(C)c(=O)c(C)c32)c1 [Trametinib]		
-0.203	0.147	-1.45	0.627				Cc1cnc(Nc2ccc(F)cc2Cl)nc1-c1c[nH]c(C(=O)N[C@H](CO)c2cccc(Cl)c2)c1 [VX-11E]		
1.05	0.127	1.75	1.1				COc1cc2/c(=N/c3ccc(Br)cc3F)nc[nH]c2cc1OCC1CCN(C)CC1 [Vandetanib]		
0.303	0.423	0.0567	0.513				Clc1ccc(Nc2nnc(Cc3ccncc3)c3ccccc23)cc1 [Vatalanib]		
2.06	4.24	2.66	5.18				CCCS(=O)(=O)Nc1ccc(F)c(C(=O)c2c[nH]c3ncc(-c4ccc(Cl)cc4)cc23)c1F [Vemurafenib]		
3.06	3.48	2.74	4.59				CC[C@@H]1C(=O)N(C)c2cnc(Nc3ccc(C(=O)N[C@H]4CC[C@H](N5CCN(CC6CC6)CC5)CC4)cc3OC)nc2N1C(C)C [Volasertib]		
0.657	0.73	0.99	0.32				CCn1c(=O)c(-c2cc[nH]n2)cc2c(C)nc(N)nc21 [Voxtalisib]		
0.383	0.633	0.02	1.24				FC(F)c1nc2ccccc2n1-c1nc(N2CCOCC2)nc(N2CCOCC2)n1 [ZSTK474]		
	10.2	2.06		8.293		4.053	CCS(=O)(=O)N1CC(CC#N)(n2cc(-c3ncnc4[nH]ccc34)cn2)C1 [baricitinib]		
1.78	7.61	0.58	6.33				COC(=O)c1ccc2c(c1)NC(=O)/C2=C(\Nc1ccc(N(C)C(=O)CN2CCN(C)CC2)cc1)c1ccccc1 [nintedanib]		

Structure (SMILES)	ΔTm at 12.5 µM (AAK1 [1]) [°C]	ΔTm at 12.5 µM (BIKE [2]) [°C]	ΔTm at 12.5 µM (GAK) [°C]	ΔTm at 12.5 µM (MPSK1) [°C]	AAK1 (AAK1 [1]) [°C]	GAK (GAK; 12.5 µM) [°C]	MPSK1 (MPSK1; 12.5 µM) [°C]	Kd (AAK1 [3]) [nM]	Kd (BIKE [4]) [nM]
NC(=O)Nc1cc(-c2cccc(F)c2)sc1C(=O)N[C@H]1CCCNC1 [AZD7762]	10.8	12.6	5.39	3.46				36.5	33.1
CN[C@@H]1C[C@H]2O[C@@](C)([C@@H]1OC)n1c3ccccc3c3c4c(c5c6ccccc6n2c5c31)C(=O)N[C@H]4O [UCN-01]	9.91	13.1	4.03	4.49					
